The values below come from patent publication US20060165715A1, “Gp41 inhibitor” (priority 2001, published 2006).

The test system of test [1] is HIV-1 Env. As to conditions: from Ferrer et al., Nature Struct. Biol. 1999, given for comparison; read-out: IC50, fusion inhibitory activity; cited from earlier work.
Test [2] concerns HIV Env-mediated cell fusion. Kind of test: vaccinia virus-based reporter gene assay of HIV Env-mediated cell fusion (B-SC-1 target and effector cells, soluble CD4). The note with it: relative to both N35CCG-N13 and NCCG-gp41. On the set-up: species or system HIV-1.
The target in test [3] is HIV-1 (LAV) Env protein on effector cells (gp120/gp41; gp41 pre-hairpin fusion intermediate) (HIV-1 (LAV)) (UniProt P03377). Kind of test: cell-based or functional assay.
The target of test [4] is HIV-1 (LAV) Env protein on effector cells (gp120/gp41; gp41 pre-hairpin fusion intermediate) (HIV-1 (LAV), UniProt P03377 517-861). Briefly: cell-based or functional assay.

enfuvirtide: in test [1], the IC50 was roughly 50 nM.

As for “N34CCG (MGSSHHHHHHSSGLVPRGSHMSGIVQQQNNLLRAIEAQQHLLQLTVWGIKQCCGR)”, the “fold lower inhibitory activity” value in test [2] is on record as 5-6 fold.

Molecule “N36 peptide (residues 546-581 of HIV-1 Env) (from UniProt P04578 546-581)” gave an IC50, inhibition of HIV-1 Env-mediated cell fusion (vaccinia reporter gene assay, beta-galactosidase) in test [3] of 16400 nM.

B1: 6H-N34CCG, disulfide-linked trimer (designed binder)
chain: MGSSHHHHHHSSGLVPRGSHMSGIVQQQNNLLRAIEAQQHLLQLTVWGIKQCCGR
B1: in test [4], the “IC50, inhibition of HIV Env-mediated cell fusion (vaccinia reporter gene assay, beta-galactosidase)” value is 96 nM.

Broadly, the IC50 is the concentration that gives 50% inhibition.
